According to the supplement of paper PMC8671470:

Key:
Conditions in all cases: 72 h
[1] = test system: MV4-11
Summary of the method: (§1)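 Fifteen myeloid leukaemia cell lines were seeded in RPMI 1640 at a density titrated to the linear growth range. Each line went into 384-well plates with compounds acoustically pre-printed at five tenfold doses from 1 to 10,000 nM, in duplicate, and was incubated for 72 h at 37 °C with 5% CO2. Luminescent ATP viability was normalised to vehicle and to a positive control at 10 µM. The IC50 came from four-parameter log-logistic dose–response fits.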

[2] = test system: THP-1
Summary of the method: as §1

[3] = test system: NOMO-1
Summary of the method: as §1

[4] = test system: KG-1
Summary of the method: as §1

[5] = test system: ML-2
Summary of the method: as §1

[6] = test system: K-562
Summary of the method: as §1

[7] = test system: KU-812
Summary of the method: as §1

[8] = test system: LAMA-84
Summary of the method: as §1

[9] = test system: KCL-22
Summary of the method: as §1

[10] = test system: HL-60
Summary of the method: as §1

[11] = test system: Mono-Mac-6
Summary of the method: as §1

[12] = test system: MOLM-13
Summary of the method: as §1

[13] = test system: HEL
Summary of the method: as §1

[14] = test system: SHI-1
Summary of the method: as §1

[15] = test system: BV-173
Summary of the method: as §1

[16] = test system: MV4-11; assay: cell viability (% survival relative to DMSO control, bortezomib = 0%); higher = less cytotoxic
Summary of the method: (§2)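 Fifteen myeloid leukaemia cell lines (10 AML, 5 CML) were seeded at a density titrated to the linear growth range into 384-well plates pre-printed with compounds at 1, 10, 100, 1000 or 10000 nM in duplicate. Plates were incubated for 72 h at 37 °C with 5% CO2. Viability was then read by CellTiter-Glo luminescence. Each value is percent survival averaged over the duplicates, with vehicle set to 100% and a 10 µM positive control to 0%.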

[17] = test system: THP-1; assay: as above
Summary of the method: as §2

[18] = test system: NOMO-1; assay: as above
Summary of the method: as §2

[19] = test system: KG-1; assay: as above
Summary of the method: as §2

[20] = test system: ML-2; assay: as above
Summary of the method: as §2

[21] = test system: K-562; assay: as above
Summary of the method: as §2

[22] = test system: KU-812; assay: as above
Summary of the method: as §2

[23] = test system: LAMA-84; assay: as above
Summary of the method: as §2

[24] = test system: KCL-22; assay: as above
Summary of the method: as §2

[25] = test system: HL-60; assay: as above
Summary of the method: as §2

[26] = test system: Mono-Mac-6; assay: as above
Summary of the method: as §2

[27] = test system: MOLM-13; assay: as above
Summary of the method: as §2

[28] = test system: HEL; assay: as above
Summary of the method: as §2

[29] = test system: SHI-1; assay: as above
Summary of the method: as §2

[30] = test system: BV-173; assay: as above
Summary of the method: as §2

[31] = test system: myeloid leukemia patient primary cells Pat.1; assay: area under dose-response curve (viability, 1 nM-10 uM) (fraction (0-1)); higher = more sensitive
Method: (§3)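 AUC (0–1, higher = more sensitive) of the 5-point dose–response (1 nM–10 µM, 72 h, CellTiter-Glo) in primary AML/CML patient mononuclear cells. 0.030103 is the floor for inactive compounds.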

[32] = test system: myeloid leukemia patient primary cells Pat.13; assay: as above
Method: as §3

[33] = test system: myeloid leukemia patient primary cells Pat.6; assay: as above
Method: as §3

[34] = test system: myeloid leukemia patient primary cells Pat.7; assay: as above
Method: as §3

[35] = test system: myeloid leukemia patient primary cells Pat.14; assay: as above
Method: as §3

[36] = test system: myeloid leukemia patient primary cells Pat.4; assay: as above
Method: as §3

[37] = test system: myeloid leukemia patient primary cells Pat.5; assay: as above
Method: as §3

[38] = test system: myeloid leukemia patient primary cells Pat.8; assay: as above
Method: as §3

[39] = test system: myeloid leukemia patient primary cells Pat.10; assay: as above
Method: as §3

[40] = test system: myeloid leukemia patient primary cells Pat.9; assay: as above
Method: as §3

[41] = test system: myeloid leukemia patient primary cells Pat.15; assay: as above
Method: as §3

[42] = test system: myeloid leukemia patient primary cells Pat.3; assay: as above
Method: as §3

[43] = test system: myeloid leukemia patient primary cells Pat.2; assay: as above
Method: as §3

[44] = test system: myeloid leukemia patient primary cells Pat.11; assay: as above
Method: as §3

[45] = test system: myeloid leukemia patient primary cells Pat.12; assay: as above
Method: as §3

[46] = test system: myeloid leukemia patient primary cells Pat.1; assay: cell viability (% survival relative to DMSO control); higher = less cytotoxic
Summary of the method: (§4)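 Mononuclear cells from patients with AML or CML were thawed, purified on Ficoll and placed in RPMI 1640 with 10% FBS at 10,000 cells/well on 384-well plates. The plates came pre-printed with 70 compounds at five tenfold concentrations spanning 1–10,000 nM, in duplicate, and cells were exposed for 72 h. CellTiter-Glo gave viability, scaled between DMSO wells and wells with 10 μM proteasome inhibitor. Where reported, area under the curve was obtained from log-logistic fits with four parameters using the drc and PharmacoGx R packages.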

[47] = test system: myeloid leukemia patient primary cells Pat.13; assay: as above
Summary of the method: as §4

[48] = test system: myeloid leukemia patient primary cells Pat.6; assay: as above
Summary of the method: as §4

[49] = test system: myeloid leukemia patient primary cells Pat.7; assay: as above
Summary of the method: as §4

[50] = test system: myeloid leukemia patient primary cells Pat.14; assay: as above
Summary of the method: as §4

[51] = test system: myeloid leukemia patient primary cells Pat.4; assay: as above
Summary of the method: as §4

[52] = test system: myeloid leukemia patient primary cells Pat.5; assay: as above
Summary of the method: as §4

[53] = test system: myeloid leukemia patient primary cells Pat.8; assay: as above
Summary of the method: as §4

[54] = test system: myeloid leukemia patient primary cells Pat.10; assay: as above
Summary of the method: as §4

[55] = test system: myeloid leukemia patient primary cells Pat.9; assay: as above
Summary of the method: as §4

[56] = test system: myeloid leukemia patient primary cells Pat.15; assay: as above
Summary of the method: as §4

[57] = test system: myeloid leukemia patient primary cells Pat.3; assay: as above
Summary of the method: as §4

[58] = test system: myeloid leukemia patient primary cells Pat.2; assay: as above
Summary of the method: as §4

[59] = test system: myeloid leukemia patient primary cells Pat.11; assay: as above
Summary of the method: as §4

[60] = test system: myeloid leukemia patient primary cells Pat.12; assay: as above
Summary of the method: as §4

COc1cc(/C=C/c2ccc(OC)cc2OC)cc(OC)c1 [2,3',4,5'-Tetramethoxystilbene]
Conditions | IC50 (cell viability) [µM]
[1] | > 10
[2] | > 10
[3] | > 10
[4] | > 10
[5] | > 10
[6] | > 10
[7] | > 10
[8] | > 10
[9] | > 10
[10] | > 10
[11] | > 10
[12] | > 10
[13] | > 10
[14] | > 10
[15] | > 10

cell viability [%]
Conditions | 1 nM | 10 nM | 100 nM | 1000 nM | 10000 nM
[16] | 103 | 106 | 98.4 | 98.4 | 86
[17] | 97.3 | 107 | 108 | 109 | 75.3
[18] | 97.5 | 106 | 95.7 | 108 | 94.9
[19] | 94.9 | 110 | 91.9 | 101 | 79.7
[20] | 80.1 | 102 | 102 | 115 | 72.9
[21] | 108 | 113 | 106 | 101 | 89.5
[22] | 101 | 95.5 | 96.9 | 97.4 | 76.8
[23] | 103 | 104 | 99.4 | 96.4 | 94.3
[24] | 94.7 | 110 | 98.7 | 106 | 104
[25] | 109 | 86.2 | 96.2 | 105 | 81.2
[26] | 94.6 | 97.2 | 95.3 | 100 | 104
[27] | 105 | 105 | 86.4 | 107 | 100
[28] | 106 | 106 | 99.2 | 103 | 106
[29] | 99.7 | 123 | 99.4 | 104 | 98.9
[30] | 104 | 104 | 99.1 | 103 | 79.6

CC(C)c1onc(-c2c(Cl)cccc2Cl)c1COc1ccc(/C=C/c2cccc(C(=O)O)c2)c(Cl)c1 [GW 4064]
Conditions | area under dose-response curve
[31] | < 0.0301
[32] | 0.0666
[33] | 0.0544
[34] | 0.278
[35] | 0.18
[36] | < 0.0301
[37] | 0.413
[38] | < 0.0301
[39] | 0.473
[40] | 0.539
[41] | < 0.0301
[42] | 0.323
[43] | < 0.0301
[44] | < 0.0301
[45] | < 0.0301

cell viability [%]
Conditions | 1 nM | 10 nM | 100 nM | 1000 nM | 10000 nM
[46] | > 100 | 91.2 | 95.4 | 99.2 | 68.8
[47] | 99.3 | 88.8 | 78.5 | 81.7 | 52.7
[48] | > 100 | 94.1 | 99.2 | 92.7 | 62.8
[49] | 64.4 | 67.8 | 67.5 | 40.3 | < 0
[50] | 84.9 | 69.6 | 66 | 63.2 | 2.05
[51] | 81.1 | 92 | 96.4 | 91.2 | 64
[52] | 80.1 | 49.1 | 67.6 | 2.27 | 0.265
[53] | 91.6 | 88.4 | 64 | 90.2 | 81.9
[54] | 61.6 | 86.6 | 38.4 | 8.43 | 9.05
[55] | 59.1 | 40.4 | 48.8 | 3.95 | < 0
[56] | 92.6 | 95.2 | 95.5 | 98 | 89.7
[57] | 83.5 | 78.7 | 86.3 | 16.1 | 0.177
[58] | 98.1 | 94.5 | 84.4 | 96.8 | 92.7
[59] | 96.4 | 95.9 | 99.3 | 90.6 | 74.3
[60] | 92.5 | 94.8 | 97.5 | 95.5 | 89.8

CCn1c(=O)/c(=C2\Sc3ccccc3N2C)s/c1=C\c1cccc[n+]1CC.[Cl-] [MKT-077]
Conditions | area under dose-response curve
[31] | < 0.0301
[32] | 0.0334
[33] | 0.0306
[34] | 0.0538
[35] | < 0.0301
[37] | 0.119
[38] | 0.0466
[40] | 0.0402
[41] | < 0.0301
[42] | < 0.0301
[43] | < 0.0301
[44] | < 0.0301
[45] | < 0.0301

cell viability [%]
Conditions | 1 nM | 10 nM | 100 nM | 1000 nM | 10000 nM
[46] | 88.7 | 75.1 | 99.5 | 96.7 | 79.3
[47] | 85.3 | 83.5 | 92.6 | 88.8 | 72.1
[48] | 86.5 | > 100 | > 100 | 97.5 | 76.2
[49] | 60.4 | 97.6 | 87.8 | 78.2 | 63.4
[50] | 49.3 | 84.2 | > 100 | 100 | 61.8
[51] | 92.1 | 92.2 | 99.6 | 83.8 | 61.6
[52] | 2.39 | 85 | 95.2 | 69.1 | 27.4
[53] | 71.5 | 87.3 | 95.1 | 82.5 | 67.2
[54] | 35.1 | 83.7 | > 100 | 54.6 | 67.1
[55] | 7.21 | 82.2 | 86.3 | 78.1 | 48
[56] | 86.1 | 93.1 | 87.2 | 98.8 | 82.1
[57] | 46.3 | 84.2 | > 100 | > 100 | 80.4
[58] | 93.4 | 99.4 | 98.1 | 99.9 | 85.4
[59] | 96.9 | 95.6 | 99.3 | > 100 | 88.3
[60] | 95.4 | 95.7 | 97 | 97.5 | 91.4
